{"source": "patent US6753456B2", "about": "“Point mutant mice with hypersensitive alpha 4 nicotinic receptors: dopaminergic pathology and increased anxiety” (California Institute of Technology, priority 2000, dated 2004)", "key": {"nAChRs": {"system": "nAChRs", "settings": "Damaj, et al. (1999); cited from earlier work"}, "[1]": {"system": "heterozygous L9′S α4 and wild type mice", "test": "Behavioral scoring of nicotine-induced seizure activity and Straub tail", "format": "in vivo, mouse", "source_text": "To pharmacologically characterize the L9′S mutation effects on seizure induction in the α4 mice behavioral responses to pharmacologic stimulation were videotaped and scored."}, "α4β2 receptors": {"system": "α4β2 receptors", "settings": "rats, Felix and Levin (1997); cited from earlier work"}, "[2]": {"target": "T1, mutated (α4 Leu9′Ser) rat α4β2 receptors (Rattus norvegicus, UniProt P09483+P12390, L285S)", "T1 construct": "expressed in transfected cells; host or cells: Xenopus oocytes (capped mRNA injected, α4L9′S/β2 1:1)", "T1 sequence (P09483 31-630 L285S)": "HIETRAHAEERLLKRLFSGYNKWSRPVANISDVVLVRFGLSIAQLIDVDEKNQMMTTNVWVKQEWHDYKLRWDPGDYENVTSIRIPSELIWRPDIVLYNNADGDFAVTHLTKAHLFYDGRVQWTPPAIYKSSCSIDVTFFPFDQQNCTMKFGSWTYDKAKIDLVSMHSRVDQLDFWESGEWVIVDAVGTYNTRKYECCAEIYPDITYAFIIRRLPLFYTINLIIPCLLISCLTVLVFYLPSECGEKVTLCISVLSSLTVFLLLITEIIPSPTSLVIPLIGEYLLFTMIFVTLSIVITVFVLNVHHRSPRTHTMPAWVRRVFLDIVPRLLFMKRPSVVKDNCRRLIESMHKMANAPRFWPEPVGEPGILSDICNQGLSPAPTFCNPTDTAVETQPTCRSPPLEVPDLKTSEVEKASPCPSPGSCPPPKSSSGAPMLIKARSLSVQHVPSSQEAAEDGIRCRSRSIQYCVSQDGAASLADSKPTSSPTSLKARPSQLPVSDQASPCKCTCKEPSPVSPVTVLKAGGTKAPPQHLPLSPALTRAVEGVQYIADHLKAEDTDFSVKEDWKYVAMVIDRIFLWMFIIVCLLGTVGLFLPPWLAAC", "T1 sequence (P12390 25-500)": "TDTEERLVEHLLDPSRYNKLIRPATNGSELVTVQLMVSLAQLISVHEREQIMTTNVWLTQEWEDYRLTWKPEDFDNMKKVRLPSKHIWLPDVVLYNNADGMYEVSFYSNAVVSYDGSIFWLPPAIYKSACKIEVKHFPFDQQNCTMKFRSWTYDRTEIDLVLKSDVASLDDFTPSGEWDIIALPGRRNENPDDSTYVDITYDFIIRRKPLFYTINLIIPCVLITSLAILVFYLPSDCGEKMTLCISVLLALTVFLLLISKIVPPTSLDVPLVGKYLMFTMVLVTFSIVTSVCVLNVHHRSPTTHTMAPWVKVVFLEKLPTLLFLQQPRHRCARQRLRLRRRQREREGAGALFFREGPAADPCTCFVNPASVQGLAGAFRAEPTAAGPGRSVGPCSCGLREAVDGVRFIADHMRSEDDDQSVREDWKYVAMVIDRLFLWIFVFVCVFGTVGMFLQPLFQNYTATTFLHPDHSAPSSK", "test": "Two-electrode voltage clamp, agonist concentration-response of mutated α4β2 receptors expressed in Xenopus oocytes", "format": "cell-based", "description": "FIG. 1C, the agonist is choline.\nXenopus Oocyte Injections and Electrophysiology The α4 and β2 subunits were subcloned into pAMV-PA (Nowak, et al.(1998) Methods Enzymol. 293, 504-529). Capped mRNA transcripts were prepared, and α4/β2 (2 ng, 1:1) or α4L9′/β2 (0.2-0.5 ng, 1:1) were microinjected into Xenopus oocytes. Twenty-four to seventy-two hours later, two-electrode voltage clamp recordings were made in solutions containing zero […].\nChimeric males from the resulting two mouse lines, neo-intact and neo-deleted, were bred to C57BL/6 females to generate animals heterozygous for the mutation, and mice were tested for the mutation by sequencing of genomic DNA (FIG. 1F)."}, "[3]": {"system": "WT and heterozygous (het) neo-intact mutants", "test": "Ambulation (locomotion) of WT and heterozygous neo-intact mice after drug injection", "format": "in vivo, mouse"}, "heterozygous and WT mice": {"system": "heterozygous and WT mice", "settings": "nicotine 0.1 mg/kg", "source_text": "Mouse electroencephalography can also be used to examine the susceptibility of transgenic mice to seizures. A surgical and electrophysiological rig that allows simultaneous video-electroencephalographic (EEG) recordings in free moving animals can be used. For EEG electrode implants, mice are anesthetized with a ketamine-xylazine mixture, 0.2 mm-diameter tungsten wire electrodes are positioned through drilled holes in the cranium in a twisted pair configuration and placed stereotactically within different regions of the brain. A three-pin microconnector (ground electrode plus two recording electrodes) is cemented to the skull surface. Following surgery, mice are allowed to recover for 48 hours."}, "[4]": {"system": "neurons from transgenic L9′S and WT mice", "settings": "10 μM nicotine", "source_text": "The paradigms described above can be implemented in slices derived from other brain areas such as the cortex and the midbrain. Large inhibitory and excitatory potentials can be recorded from pyramidal cells in cortical slices (Hasselmo and Barkai (1995). J. Neurosci 15, 6592-604)."}, "[5]": {"system": "cells in acute midbrain slices from α4 mutant heterozygous and wild type animals", "test": "Electrophysiology on acute midbrain slices", "format": "cell-based, mouse", "settings": "heterozygous vs wild type", "from_the_text": "Electrophysiological studies on brain slices derived from transgenic α4 mice. Slices obtained from frontal cerebral cortex, hippocampus, and midbrain can be used for field and intracellular recordings. Field recordings serve to determine whether various compounds cause or block synchronized firing in these neuronal ensembles. Whole-cell patch recordings provide information regarding activation and/or desensitization of nAChRs in individual neurons when exposed to various agonists and antagonists, as well as the effects of these compounds on firing rates. Because interneurons express most of the α4 receptors, recordings from interneurons and IPSC's in pyramidal cells are useful for study."}}, "note": "Entries after “also recorded” stand apart in the source; their conditions may differ. Structures can show the parent of a compound that is named as a salt."}
{"smiles": "CNC1(C)C2CCC(C2)C1(C)C", "note": "(stereo not shown) [mecamylamine]", "values": [{"measurement": "block of nicotine-induced seizures", "setting": "nAChRs", "value": "effective nicotine-induced seizure blocker"}, {"measurement": "effect on nicotine effects (seizures, Straub tail)", "setting": "[1]; mecamylamine 2 mg/kg, both hets and WT", "value": "partially blocked"}]}
{"smiles": "CO[C@H]1CC=C2CCN3CCC4=C(CC(=O)OC4)[C@]23C1", "note": "[DHβE, Dihydro-β-erythroidine]", "values": [{"measurement": "seizure induction", "setting": "α4β2 receptors", "value": "induce seizures"}]}
{"smiles": "CCN(CC)CCCCCCCCOC(=O)c1cc(OC)c(OC)c(OC)c1.Cl", "note": "[8-(diethylamino)octyl 3,4,5-trimethoxyben-zoate hydrochloride]", "values": [{"measurement": "effect on increased leakage currents in oocytes expressing α4L9′S/β2 receptor", "setting": "[2]; 500 nM, nine oocytes", "value": "blockable"}]}
{"smiles": "C[N+](C)(C)CCO", "note": "[choline]", "values": [{"measurement": "activation of the mutated receptor, % of maximal values", "setting": "[2]; choline about 10 μM", "value": 20, "unit": "%"}]}
{"smiles": "C[C@H](N)Cc1ccccc1", "note": "[amphetamine, d-amphetamine sulfate]", "values": [{"measurement": "locomotor response in young mice", "setting": "[3]; 5 mg/kg i.p., about 3-month-old WT and heterozygous mice", "value": "stimulated locomotion"}, {"measurement": "locomotor response of heterozygous mice at 11 months vs 3 months", "setting": "[3]; 5 mg/kg i.p., heterozygous, 11 months of age", "value": "declines significantly; also recorded: reduced amphetamine-induced locomotion"}]}
{"smiles": "CN1CCCC1c1cccnc1", "note": "(stereo not shown) [nicotine]", "values": [{"measurement": "effect on locomotor activity of WT mice", "setting": "[3]; nicotine 0.02 mg/kg i.p., WT mice", "value": "no significant difference; also recorded: not affected"}, {"measurement": "effect on locomotor activity of heterozygous knock-in mice", "setting": "[3]; nicotine 0.02 mg/kg i.p., heterozygous mice, 5-15 min after injection", "value": "significant reduction of locomotor activity; also recorded: sharply reduces the level of activity"}, {"measurement": "EEG recordings of WT", "setting": "heterozygous and WT mice; WT", "value": "unaffected"}, {"measurement": "EEG response of a heterozygous mouse", "setting": "heterozygous and WT mice; heterozygous", "value": "Rapid-burst discharges"}, {"measurement": "amplitude of 6 Hz theta rhythm in a heterozygous mouse", "setting": "heterozygous and WT mice; heterozygous", "value": "two-fold increased amplitude"}, {"measurement": "response of WT-derived cells", "setting": "[4]; WT", "value": "remained silent or required much larger concentrations to be activated"}, {"measurement": "response of neurons from transgenic mice", "setting": "[4]; majority of neurons", "value": "responded with spontaneous bursts"}, {"measurement": "concentrations to which heterozygous cells respond relative to those activating receptors in wild type slices", "setting": "[5]", "value": "ten times lower"}, {"measurement": "doses required for severe tonic-clonic seizures in WT animals", "setting": "[1]; WT", "value": "> 10", "unit": "mg/kg"}, {"measurement": "threshold to nicotine-induced seizures in L9′S knock-in mice", "setting": "[1]; summary statement", "value": "reduced threshold"}, {"measurement": "sensitivity of L9′S nAChRs expressed in frog oocytes to the ligand", "setting": "[2]; summary statement", "value": "increased sensitivity"}, {"measurement": "shift of the dose-response relation to the left by the Leu-9′-Ser mutation (increase in agonist sensitivity)", "setting": "[2]; α4β2 receptor tested in oocytes, mutant vs WT", "value": "about 30 fold"}]}
